Patent US20070293530A1, “SULFAMIDE AND SULFAMATE DERIVATIVES AS HISTONE DEACETYLASE INHIBITORS” (METHYLGENE INC., priority 2006, published 2007)

biological target: HDAC enzyme; test: Inhibition of Histone Deacetylase Enzymatic Activity (Assay Examples 1 and 2); type: biochemical; details: HDAC isoform not specified; fluorogenic Boc-Lys(Ac)-AMC or Boc-Lys(trifluoroacetyl)-AMC substrate
Protocol: The following protocol is used to assay the compounds of the invention. In the assay, the buffer used is 25 mM HEPES, pH 8.0, 137 mM NaCl, 2.7 mM KCl, 1 mM MgCl2 and the subtrate is Boc-Lys(Ac)-AMC in a 50 mM stock solution in DMSO. The enzyme stock solution is 4.08 μg/mL in buffer.
The compounds are pre-incubated (2 μl in DMSO diluted to 13 μl in buffer for transfer to assay plate) with enzyme (20 μl of 4.08 μg/ml) for 10 minutes at room temperature (35 μl pre-incubation volume). The mixture is pre-incubated for 5 minutes at room temperature. The reaction is started by bringing the temperature to 37° C. and adding 16 μl substrate. Total reaction volume is 50 μl. The reaction is stopped after 20 minutes by addition of 50 μl developer, prepared as directed by Biomol (Fluor-de-Lys developer, Cat. #KI-105). A plate is incubated in the dark for 10 minutes at room temperature before reading (λEx=360 nm, λEm=470 nm, Cutoff filter at 435 nm).
Alternatively, HDAC inhibitory activity was determined using the following assay.
A 30 mM stock of Boc-Lys(trifluoroacetyl)-AMC substrate is prepared in DMSO. 2 μL of test compound in DMSO is diluted to 50 μL in buffer (25 mM HEPES, pH 8.0, 137 mM NaCl, 2.7 mM KCl, 1 mM MgCl2, 0.1% BSA) and pre-incubated with HDAC enzyme (30 μL of a final enzyme concentration of 0.1-0.2 nM) for 10 minutes at room temperature. Reaction is started by adding 18 μL Boc-Lys(trifluoroacetyl)-AMC substrate and incubating at 37° C. for 20-30 minutes. The reaction is stopped by adding 50 μL trypsin (1 mg/mL) and a known HDAC inhibitor (such as LAQ-824). The plate is then incubated in the dark for 20 minutes at room temperature and read with Ex=360 nm, Em=470 nm, cutoff filter at 435 nm.
In the table, A≦0.2 μM; 0.2 μM<B≦0.5 μM; […]; and 1 μM<D≦6 μM.

Row | Structure (SMILES) | IC50 [nM]
1 | NS(=O)(=O)NCCCC[C@H](NC(=O)OCc1ccccc1)c1csc(Nc2ccccc2)n1 [Compound 364, (S)-benzyl 1-(2-(phenyl-amino)-thiazol-4-yl)-5-(sulfamoyl-amino)-pentyl-carbamate] | 500 to 1000
2 | CCOC(=O)N[C@@H](CCCCNS(N)(=O)=O)C(=O)Nc1nc(-c2ccccc2)cs1 [Compound 252, (S)-ethyl 1-oxo-1-(4-phenylthiazol-2-ylamino)-6-(sulfamoylamino)hexan-2-ylcarbamate] | 200 to 500
3 | NS(=O)(=O)NCCCC[C@H](NC(=O)OCc1ccccc1)C(=O)Nc1nc(C(=O)Nc2ccccc2)cs1 [Compound 313, (S)-benzyl 1-oxo-1-(4-(phenyl-carbamoyl)-thiazol-2-ylamino)-6-(sulfamoyl-amino)-hexan-2-ylcarbamate] | ≤ 200
4 | NS(=O)(=O)NCCCC[C@H](NC(=O)OCc1ccccc1)C(=O)Nc1nc(-c2ccccc2)cs1 [Compound 60, (S)-benzyl 1-oxo-1-(4-phenylthiazol-2-ylamino)-6-(sulfamoyl-amino)-hexan-2-ylcarbamate] | ≤ 200
5 | NS(=O)(=O)NCCCC[C@H](NC(=O)OCc1ccccc1)C(=O)Nc1cccc2cccnc12 [Compound 55, (S)-benzyl 1-oxo-1-(quinolin-8-ylamino)-6-(sulfamoyl-amino)-hexan-2-ylcarbamate] | ≤ 200
6 | NS(=O)(=O)NCCCC[C@H](NC(=O)OCc1ccccc1)C(=O)Nc1cnc2ccccc2c1 [Compound 274, (S)-benzyl 1-oxo-1-(quinolin-3-ylamino)-6-(sulfamoyl-amino)-hexan-2-ylcarbamate] | ≤ 200
7 | COc1ccc(-c2nc([C@H](CCCCNS(N)(=O)=O)NC(=O)OCc3ccccc3)c[nH]2)cc1 [Compound 327, (S)-benzyl 1-(2-(4-methoxyphenyl)-1H-imidazol-4-yl)-5-(sulfamoylamino)pentylcarbamate] | ≤ 200
8 | COc1ccc(S(=O)(=O)N[C@@H](CCCCNS(N)(=O)=O)C(=O)Nc2cccc3cccnc23)cc1OC [Compound 201, (S)-2-(3,4-dimethoxyphenylsulfonamido)-N-(quinolin-8-yl)-6-(sulfamoylamino)hexanamide] | 200 to 500
9 | CC(=O)N[C@@H](CCCCNS(N)(=O)=O)C(=O)Nc1cccc2cccnc12 [Compound 34, (S)-2-Acetamido-N-(quinolin-8-yl)-6-(sulfamoylamino)hexanamide] | ≤ 200
10 | NS(=O)(=O)NCCCC[C@H](NC(=O)c1cccc2cccnc12)C(=O)Nc1cccc2cccnc12 [Compound 209, (S)-N-(1-oxo-1-(quinolin-8-ylamino)-6-(sulfamoyl-amino)hex-an-2-yl)-quinoline-8-carboxamide] | 200 to 500
11 | NS(=O)(=O)NCCCC[C@H](NC(=O)c1cc2ccccc2o1)C(=O)Nc1cccc2cccnc12 [Compound 51, (S)-N-(1-oxo-1-(quinolin-8-ylamino)-6-(sulfamoyl-amino)-hexan-2-yl)-benzofuran-2-carboxamide] | 200 to 500
12 | COC(=O)N[C@@H](CCCCNS(N)(=O)=O)C(=O)Nc1nc(-c2ccccc2)cs1 [Compound 319, (S)-methyl 1-oxo-1-(4-phenyl-thiazol-2-ylamino)-6-(sulfamoyl-amino)-hexan-2-ylcarbamate] | ≤ 200
13 | COc1cccc(-c2csc(NC(=O)[C@H](CCCCNS(N)(=O)=O)NC(=O)OCc3ccccc3)n2)c1 [Compound 309, (S)-benzyl 1-(4-(3-methoxy-phenyl)-thiazol-2-ylamino)-1-oxo-6-(sulfamoyl-amino)-hexan-2-ylcarbamate] | 200 to 500
14 | NS(=O)(=O)NCCCC[C@H](NC(=O)OCc1ccccc1)c1csc(-c2ccc(Br)cc2)n1 [Compound 361, (S)-benzyl 1-(2-(4-bromo-phenyl)-thiazol-4-yl)-5-(sulfamoyl-amino)-pentyl-carbamate] | 200 to 500
15 | COc1cc(NC(=O)CCCCCNS(N)(=O)=O)c2ncccc2c1 [Compound 40, N-(6-methoxy-quinolin-8-yl)-6-(sulfamoyl-amino)-hexanamide] | ≤ 200
16 | NS(=O)(=O)NCCCC[C@H](NC(=O)Nc1ccccc1)C(=O)Nc1cccc2cccnc12 [Compound 211, (S)-2-(3-phenyl-ureido)-N-(quinolin-8-yl)-6-(sulfa-moylamino)-hexanamide] | ≤ 200
17 | Cc1ccc(-c2nc([C@H](CCCCNS(N)(=O)=O)NC(=O)OCc3ccccc3)c[nH]2)cc1 [Compound 348, (S)-benzyl 5-(sulfamoyl-amino)-1-(2-p-tolyl-1H-imidazol-4-yl)pentyl-carbamate] | 200 to 500
18 | COc1cc(NC(=O)[C@H](CCCCNS(N)(=O)=O)NC(=O)OCc2ccccc2)c2ncccc2c1 [Compound 270, (S)-benzyl 1-(6-methoxy-quinolin-8-ylamino)-1-oxo-6-(sulfamoyl-amino)-hexan-2-ylcarbamate] | ≤ 200
19 | COc1ccc(-c2nc(NC(=O)[C@H](CCCCNS(N)(=O)=O)NC(=O)OCc3ccccc3)sc2C)cc1 [Compound 289, (S)-benzyl 1-(4-(4-methoxy-phenyl)-5-methyl-thiazol-2-ylamino)-1-oxo-6-(sulfamoyl-amino)-hexan-2-ylcarbamate] | 200 to 500
20 | NS(=O)(=O)NCCCC[C@H](NC(=O)Cc1ccccc1)C(=O)Nc1nc(-c2ccccc2)cs1 [Compound 230a, (S)-2-(2-phenylacetamido)-N-(4-phenylthiazol-2-yl)-6-(sulfamoylamino)hexanamide] | ≤ 200
21 | NS(=O)(=O)NCCCCCC(=O)Nc1cccc(-c2ccccc2)c1 [Compound 4, N-(Biphenyl-3-yl)-6-(sulfamoylamino)hexanamide] | ≤ 200

Second part, the compound after the results:

Row | IC50 [nM] | Structure (SMILES)
22 | ≤ 200 | NS(=O)(=O)NCCCC[C@H](NC(=O)OCc1ccccc1)C(=O)Nc1cccc(-c2ccccc2)c1 [Compound 310, (S)-benzyl 1-(biphenyl-3-ylamino)-1-oxo-6-(sulfamoyl-amino)-hexan-2-ylcarbamate]
23 | ≤ 200 | NS(=O)(=O)NCCCC[C@H](NC(=O)OCc1ccccc1)c1n[nH]c(-c2ccccc2)n1 [Compound 335, (S)-benzyl 1-(5-phenyl-1H-1,2,4-triazol-3-yl)-5-(sulfamoylamino)pentylcarbamate]
24 | ≤ 200 | COc1ccc(NC(=O)c2csc(NC(=O)[C@H](CCCCNS(N)(=O)=O)NC(=O)OCc3ccccc3)n2)cc1 [Compound 314, (S)-benzyl 1-(4-(4-methoxy-phenyl-carbamoyl)-thiazol-2-ylamino)-1-oxo-6-(sulfamoyl-amino)-hexan-2-ylcarbamate]
25 | 200 to 500 | NS(=O)(=O)NCCCC[C@H](NC(=O)NCc1ccc(F)cc1)C(=O)Nc1nc(-c2ccccc2)cs1 [Compound 240, (S)-2-(3-(4-fluoro-benzyl)-ureido)-N-(4-phenyl-thiazol-2-yl)-6-(sulfa-moylamino)-hexanamide]
26 | 200 to 500 | NS(=O)(=O)NCCCC[C@H](NC(=O)OCc1ccccc1)C(=O)Nc1nc(-c2ccc(F)cc2)cs1 [Compound 318, (S)-benzyl 1-(4-(4-fluoro-phenyl)-thiazol-2-ylamino)-1-oxo-6-(sulfamoyl-amino)-hexan-2-ylcarbamate]
27 | ≤ 200 | NS(=O)(=O)NCCCCCC(=O)Nc1cc(OCc2ccccn2)cc2cccnc12 [Compound 79, N-(6-(pyridin-2-ylmethoxy)-quinolin-8-yl)-6-(sulfa-moylamino)-hexanamide]
28 | 200 to 500 | COc1ccc(C(=O)N[C@@H](CCCCNS(N)(=O)=O)C(=O)Nc2cccc3cccnc23)cc1OC [Compound 207, (S)-3,4-dimethoxy-N-(1-oxo-1-(quinolin-8-ylamino)-6-(sulfamoyl-amino)hex-an-2-yl)-benzamide]
29 | 200 to 500 | NS(=O)(=O)NCCCC[C@H](NC(=O)NCc1ccccc1)C(=O)Nc1cccc2cccnc12 [Compound 203, (S)-2-(3-benzylureido)-N-(quinolin-8-yl)-6-(sulfamoylamino)hexanamide]
30 | 200 to 500 | COc1ccc2[nH]c(C)c(CC(=O)N[C@@H](CCCCNS(N)(=O)=O)C(=O)Nc3cccc4cccnc34)c2c1 [Compound 62, (S)-2-(2-(5-methoxy-2-methyl-1H-indol-3-yl)acetamido)-N-(quinolin-8-yl)-6-(sulfamoyl-amino)-hexanamide]
31 | ≤ 200 | NS(=O)(=O)NCCCC[C@H](NC(=O)OCc1ccccc1)C(=O)Nc1nc(-c2ccc(C(F)(F)F)cc2)cs1 [Compound 308, (S)-benzyl 1-oxo-6-(sulfamoyl-amino)-1-(4-(4-(trifluoro-methyl)-phenyl)-thiazol-2-ylamino)-hexan-2-ylcarbamate]
32 | ≤ 200 | NS(=O)(=O)NCCCC[C@H](NC(=O)OCc1cccc(Cl)c1)C(=O)Nc1nc(-c2ccccc2)cs1 [Compound 242, (S)-3-chlorobenzyl 1-oxo-1-(4-phenyl-thiazol-2-ylamino)-6-(sulfa-moylamino)-hexan-2-ylcarbamate]
